# Biological target: human Nav1.7 (Homo sapiens (Human), UniProt Q15858)
# Experiment: FLIPR or FLIPR TETRA sodium dye assay with KCl and test article pre-incubation
# Assay type: cell-based
# Settings: read-out: Nav1.7 IC50 (μM) ± SEM
# Sequence of human Nav1.7 (Q15858 other isoform, or with tags, fused parts or gaps): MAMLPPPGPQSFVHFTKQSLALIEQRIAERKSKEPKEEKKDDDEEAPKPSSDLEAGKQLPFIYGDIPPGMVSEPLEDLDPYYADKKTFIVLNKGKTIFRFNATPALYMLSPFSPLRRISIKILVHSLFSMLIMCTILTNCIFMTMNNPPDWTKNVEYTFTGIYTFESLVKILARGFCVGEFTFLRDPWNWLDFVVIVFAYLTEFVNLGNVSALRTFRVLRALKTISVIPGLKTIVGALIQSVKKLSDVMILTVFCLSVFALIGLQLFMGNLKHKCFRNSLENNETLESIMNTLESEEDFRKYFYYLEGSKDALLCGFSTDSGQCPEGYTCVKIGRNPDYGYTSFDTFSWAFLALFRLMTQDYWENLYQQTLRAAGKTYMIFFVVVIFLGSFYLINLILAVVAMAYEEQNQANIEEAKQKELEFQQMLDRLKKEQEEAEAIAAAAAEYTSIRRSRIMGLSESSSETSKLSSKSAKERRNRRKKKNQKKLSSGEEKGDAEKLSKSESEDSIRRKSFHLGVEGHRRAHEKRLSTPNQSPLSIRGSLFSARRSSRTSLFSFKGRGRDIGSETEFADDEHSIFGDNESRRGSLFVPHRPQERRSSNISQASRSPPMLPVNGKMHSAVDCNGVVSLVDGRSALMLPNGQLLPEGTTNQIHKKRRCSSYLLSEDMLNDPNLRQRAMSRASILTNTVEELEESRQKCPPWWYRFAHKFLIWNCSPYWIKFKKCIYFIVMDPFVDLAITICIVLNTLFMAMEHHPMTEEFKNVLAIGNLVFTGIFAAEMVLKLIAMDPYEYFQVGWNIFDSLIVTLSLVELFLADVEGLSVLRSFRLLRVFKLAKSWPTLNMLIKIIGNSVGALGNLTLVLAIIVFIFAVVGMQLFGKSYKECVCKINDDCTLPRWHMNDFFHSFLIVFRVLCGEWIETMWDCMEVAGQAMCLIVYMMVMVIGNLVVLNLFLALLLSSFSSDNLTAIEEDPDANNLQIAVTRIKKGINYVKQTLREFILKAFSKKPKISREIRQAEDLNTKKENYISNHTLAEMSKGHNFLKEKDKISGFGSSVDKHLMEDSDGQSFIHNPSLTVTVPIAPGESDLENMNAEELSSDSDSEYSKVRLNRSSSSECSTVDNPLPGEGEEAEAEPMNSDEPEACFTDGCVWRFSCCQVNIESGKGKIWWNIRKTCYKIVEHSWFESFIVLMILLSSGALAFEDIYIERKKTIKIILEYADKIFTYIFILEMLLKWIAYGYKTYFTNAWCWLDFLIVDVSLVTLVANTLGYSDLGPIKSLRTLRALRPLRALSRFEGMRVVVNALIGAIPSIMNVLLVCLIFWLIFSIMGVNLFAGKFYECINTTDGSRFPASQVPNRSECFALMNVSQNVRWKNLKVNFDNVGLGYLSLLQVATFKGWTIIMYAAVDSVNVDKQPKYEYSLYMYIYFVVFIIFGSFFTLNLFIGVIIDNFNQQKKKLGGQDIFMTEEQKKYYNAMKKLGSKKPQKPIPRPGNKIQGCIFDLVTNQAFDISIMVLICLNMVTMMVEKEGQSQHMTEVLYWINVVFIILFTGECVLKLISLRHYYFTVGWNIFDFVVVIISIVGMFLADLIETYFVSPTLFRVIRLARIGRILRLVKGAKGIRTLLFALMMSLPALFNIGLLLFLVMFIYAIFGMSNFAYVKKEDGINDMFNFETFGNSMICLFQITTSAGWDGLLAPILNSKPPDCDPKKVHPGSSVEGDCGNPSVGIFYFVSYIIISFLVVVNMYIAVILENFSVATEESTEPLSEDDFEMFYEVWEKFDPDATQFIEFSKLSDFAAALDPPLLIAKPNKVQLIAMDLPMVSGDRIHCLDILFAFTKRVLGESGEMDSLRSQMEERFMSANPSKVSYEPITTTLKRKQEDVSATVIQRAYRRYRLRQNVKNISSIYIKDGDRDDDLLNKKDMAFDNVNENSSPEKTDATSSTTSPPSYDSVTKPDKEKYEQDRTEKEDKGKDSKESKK
row,Compound,IC50
1,"N#Cc1cc(Oc2ccc(-c3cccc(CNCCN4CCNC4=O)n3)cc2)ccc1C(F)(F)F [compound 70, 5-(4-(6-(((2-(2-oxoimidazolidin-1-yl)ethyl)amino)methyl)pyridin-2-yl)phenoxy)-2-(trifluoromethyl) benzonitrile]",0.23 ± 0.08 µM
2,"CN(c1ccccc1)c1cc(C(=O)O)nc(-c2ccc(Oc3ccc(F)cc3)cc2)c1 [compound 114, 6-(4-(4-fluorophenoxy)phenyl)-4-(methyl(phenyl)amino)picolinic acid]",0.68 ± 0.6 µM
3,"NC(=O)c1cc(N2CCC(C(=O)O)CC2)cc(-c2ccc(Oc3ccc(F)cc3)cc2)n1 [compound 59, 1-(2-carbamoyl-6-(4-(4-fluorophenoxy)phenyl)pyridin-4-yl) piperidine-4-carboxylic acid]",2.28 ± 0.2 µM
4,"N#Cc1ccc(Oc2ccc(-c3cccc([C@@H](O)CO)n3)cc2)c(C(F)(F)F)c1 [compound 11, (R)-4-(4-(6-(1,2-dihydroxyethyl)pyridin-2-yl)phenoxy)-3-(trifluoromethyl) benzonitrile]",0.82 ± 0.09 µM
5,"CN(c1ccc(C(=O)O)cc1)c1cc(-c2ccc(Oc3ccc(F)cc3)cc2)cc(C(=O)O)n1 [compound 120, 6-((4-carboxyphenyl) (methy)amino)-4-(4-(4-fluorophenoxy)phenyl) picolinic acid]",9.3 ± 0.54 µM
6,"CN(c1ccc(C(=O)O)cc1)c1cc(C(=O)O)nc(-c2ccc(Oc3ccc(F)cc3)cc2)c1 [compound 117, 4-((4-carboxyphenyl)(methy)amino)-6-(4-(4-fluorophenoxy)phenyl) picolinic acid]",> 20 µM
7,"C[C@H](Nc1cc(C(N)=O)nc(-c2ccc(Oc3ccc(F)cc3)cc2)c1)C(N)=O [compound 167, (S)-4-((1-amino-1-oxopropan-2-yl)amino)-6-(4-(4-fluorophenoxy)phenyl) picolinamide]",0.73 ± 0.1 µM

# Same assay, conditions: recombinant human Nav1.7 in HEK293 cells; CoroNa Green sodium dye; veratridine + scorpion venom; read-out: Nav1.7 IC50 (μM) ± SEM
row,Compound,IC50
1,"CN(c1ccc(C(=O)O)cc1)c1cc(C(N)=O)nc(-c2ccc(Oc3ccc(F)cc3)cc2)c1 [compound 91, 4-((2-carbamoyl-6-(4-(4-fluorophenoxy)phenyl)pyridin-4-yl)(methyl)amino)benzoic acid]",> 20 µM
2,"C[C@H](O)[C@@H](O)c1cc(C(N)=O)nc(-c2ccc(Oc3ccc(F)cc3)cc2)c1 [compound 129, 4-((1S,2S)-1,2-dihydroxypropyl)-6-(4-(4-fluorophenoxy)phenyl)picolinamide]",1.74 ± 0.35 µM
3,"NC(=O)c1cc(-c2ccc(Oc3cccc(OC(F)(F)F)c3)cc2)cc([C@H](O)CO)n1 [compound 158, 6-((S)-1,2-Dihydroxy-ethyl)-4-[4-(3-trifluoromethoxy-phenoxy)phenyl]-pyridine-2-carboxylic acid amide]",0.16 ± 0.01 µM
4,"NC(=O)c1cc(NCCN2CCS(=O)(=O)CC2)cc(-c2ccc(Oc3ccc(F)cc3)cc2)n1 [compound 48, 4-((2-(1,1-dioxidothiomorpholino)ethyl)amino)-6-(4-(4-fluorophenoxy)phenyl) picolinamide]",0.09 ± 0.06 µM
5,"NC(=O)c1cc([C@H](O)CO)cc(-c2ccc(Oc3cccc(OC(F)(F)F)c3)cc2)n1 [compound 163, 4-((S)-1,2-Dihydroxy-ethyl)-6-[4-(3-trifluoromethoxy-phenoxy)phenyl]-pyridine-2-carboxylic acid amide]",0.63 ± 0.07 µM
6,"NC(=O)c1cc(CNCCN2CCNC2=O)cc(-c2ccc(Oc3ccc(F)cc3)cc2)n1 [compound 60, 6-(4-(4-fluorophenoxy)phenyl)-4-(((2-(2-oxoimidazolidin-1-yl)ethyl)amino)methyl)picolinamide]",0.16 ± 0.03 µM
7,"NC(=O)c1cc(N2CCN(c3ncccn3)CC2)cc(-c2ccc(Oc3ccc(F)cc3)cc2)n1 [compound 74, 6-(4-(4-fluorophenoxy)phenyl)-4-(4-(pyrimidin-2-yl)piperazin-1-yl) picolinamide]",0.09 ± 0.01 µM
8,"NC(=O)c1cc(C[C@@H](O)CO)cc(-c2ccc(Oc3ccc(F)cc3)cc2)n1 [compound 134, (R)-4-(2,3-dihydroxypropyl)-6-(4-(4-fluorophenoxy)phenyl)picolinamide]",3.9 ± 0.34 µM
9,"NC(=O)c1cc(N2CCN(C(N)=O)CC2)cc(-c2ccc(Oc3ccc(F)cc3)cc2)n1 [compound 76, 4-(2-carbamoyl-6-(4-(4-fluorophenoxy)phenyl)pyridin-4-yl) piperazine-1-carboxamide]",0.53 ± 0.07 µM
10,"O=C(O)c1cc(N(CCc2nn[nH]n2)c2ccccc2)cc(-c2ccc(Oc3ccc(F)cc3)cc2)n1 [compound 152, 6-[4-(4-Fluoro-phenoxy)-phenyl]-4-{phenyl-[2-(2H-tetrazol-5-yl)ethyl]-amino}-pyridine-2-carboxylic acid]",1.87 ± 0.68 µM
11,"OC[C@@H](O)c1cccc(-c2ccc(Oc3ccc(C(F)(F)F)cn3)cc2)n1 [compound 24, (S)-1-(6-(4-((5-(trifluoromethyl)pyridin-2-yl)oxy)phenyl)pyridin-2-yl)ethane-1,2-diol]",6.49 ± 2.94 µM
12,"NC(=O)CN(c1ccccc1)c1cc(-c2ccc(Oc3ccc(F)cc3)cc2)cc(C(N)=O)n1 [compound 98, 6-((2-amino-2-oxoethyl)(phenyl)amino)-4-(4-(4-fluorophenoxy)phenyl)picolinamide]",0.22 ± 0.07 µM
13,"O=C(O)c1cc(C(=O)NCCN2CCCCC2)nc(-c2ccc(Oc3ccc(F)cc3)cc2)c1 [compound 85, 2-(4-(4-fluorophenoxy)phenyl)-6-((2-(piperidin-1-yl)ethyl)carbamoyl)iso nicotinic acid]",6.59 ± 2.17 µM
14,"N=C(N)N1CCN(c2cc(C(N)=O)nc(-c3ccc(Oc4ccc(F)cc4)cc3)c2)CC1 [compound 80, 4-(4-carbamimidoylpiperazin-1-yl)-6-(4-(4-fluorophenoxy)phenyl)picolinamide]",1.3 ± 0.17 µM
15,"O=C(NC(CO)CO)c1cc(-c2ccc(Oc3ccc(F)cc3)cc2)cc(Cl)n1 [compound 125, 6-chloro-N-(1,3-dihydroxypropan-2-yl)-4-(4-(4-fluorophenoxy)phenyl)picolinamide]",0.77 ± 0.13 µM
16,"NC(=O)c1cc([C@H](O)CO)cc(-c2ccc(Oc3ccc(OC(F)(F)F)cc3)cc2)n1 [compound 159, 4-((S)-1,2-Dihydroxy-ethyl)-6-[4-(4-trifluoromethoxy-phenoxy)phenyl]-pyridine-2-carboxylic acid amide]",0.3 ± 0.02 µM

row,Compound,IC50
1,"NC(=O)c1cc([C@@H](O)CO)cc(-c2ccc(Oc3cccc(OC(F)(F)F)c3)cc2)n1 [compound 164, 4-((R)-1,2-Dihydroxy-ethyl)-6-[4-(3-trifluoromethoxy-phenoxy)phenyl]-pyridine-2-carboxylic acid amide]",0.49 ± 0.1 µM
2,"N#Cc1ccc(Oc2ccc(-c3cc([C@H](O)CO)cc(C(N)=O)n3)cc2)cc1 [compound 37, (S)-6-(4-(4-cyanophenoxy)phenyl)-4-(1,2-dihydroxyethyl) picolinamide]",0.44 ± 0.1 µM
3,"NC(=O)c1cc([C@@H](O)CO)cc(-c2cccc(Oc3ccc(F)cc3)c2)n1 [compound 142, 4-((R)-1,2-dihydroxy-ethyl)-6-[3-(4-fluoro-phenoxy)-phenyl]-pyridine-2-carboxylic acid amide]",5.3 ± 1.6 µM
4,"NC(=O)c1cc(-c2ccc(Oc3ccc(OC(F)(F)F)cc3)cc2)cc([C@@H](O)CO)n1 [compound 157, 6-((R)-1,2-Dihydroxy-ethyl)-4-[4-(4-trifluoromethoxy-phenoxy)phenyl]-pyridine-2-carboxylic acid amide]",0.12 ± 0.008 µM
5,"Cc1ccc(Oc2ccc(-c3cccc(C(O)CO)n3)cc2)cn1 (centres unmarked) [compound 17, 1-(6-(4-((6-methylpyridin-3-yl)oxy)phenyl)pyridin-2-yl)ethane-1,2-diol]",2.77 ± 0.41 µM
6,"N#CCCN(c1ccccc1)c1cc(-c2ccc(Oc3ccc(F)cc3)cc2)cc(C(=O)O)n1 [compound 94, 6-((2-cyanoethyl) (phenyl)amino)-4-(4-(4-fluorophenoxy)phenyl)picolinic acid]",2.17 ± 0.66 µM
7,"NC(=O)c1cc(-c2ccc(Oc3ccc(F)cc3)cc2)cc(N(CCc2nn[nH]n2)c2ccccc2)n1 [compound 151, 4-[4-(4-Fluoro-phenoxy)-phenyl]-6-{phenyl-[2-(2H-tetrazol-5-yl)-ethyl]-amino}-pyridine-2-carboxylic acid amide]",0.16 ± 0.03 µM
8,"CN(c1ccccc1)c1cc(-c2ccc(Oc3ccc(F)cc3)cc2)cc(C(N)=O)n1 [compound 113, 4-(4-(4-fluorophenoxy)phenyl)-6-(methyl(phenyl)amino)picolinamide]",0.36 ± 0.8 µM
9,"NC(=O)c1cc([C@@H](O)CO)cc(-c2ccc(Oc3cc(Cl)ccc3F)cc2)n1 [compound 123, (R)-6-(4-(5-chloro-2-fluorophenoxy)phenyl)-4-(1,2-dihydroxyethyl) picolinamide]",0.17 ± 0.03 µM
10,"NC(=O)c1ccc(Oc2ccc(-c3cc([C@H](O)CO)cc(C(N)=O)n3)cc2)c(C(F)(F)F)c1 [compound 32, (S)-6-(4-(4-carbamoyl-2-(trifluoromethyl)phenoxy)phenyl)-4-(1,2-dihydroxyethyl) picolinamide]",> 20 µM
11,"NC(=O)c1cc(NCc2ncccn2)cc(-c2ccc(Oc3ccc(F)cc3)cc2)n1 [compound 49, 6-(4-(4-fluorophenoxy)phenyl)-4-((pyrimidin-2-ylmethyl)amino) picolinamide]",0.1 ± 0.03 µM
12,"C[C@H](NCc1cccc(-c2ccc(Oc3ccc(F)cc3)cc2)n1)C(N)=O [compound 88, (S)-2-({6-[4-(4-Fluoro-phenoxyl)-phenyl]-pyridin-2-yl-methyl}-amino) propionamide]",0.23 ± 0.09 µM
13,"NC(=O)c1cc([C@@H](O)CO)cc(-c2ccc(Oc3ccc(C(F)(F)F)cn3)cc2)n1 [compound 132, (R)-4-(1,2-dihydroxyethyl)-6-(4-((5-(trifluoromethyl)pyridin-2-yl)oxy)phenyl)picolinamide]",2.78 ± 0.75 µM
14,"O=C(NCCN1CCCCC1)c1cc([C@H](O)CO)cc(-c2ccc(Oc3ccc(F)cc3)cc2)n1 [compound 42, (S)-4-(1,2-dihydroxyethyl)-6-(4-(4-fluorophenoxy)phenyl)-N-(2-(piperidin-1-yl)ethyl) picolinamide]",1.25 ± 0.15 µM
15,"O=C(O)c1cc(-n2cc(C(=O)O)c3ccccc32)cc(-c2ccc(Oc3ccc(F)cc3)cc2)n1 [compound 93, 1-(2-carboxy-6-(4-(4-fluorophenoxy)phenyl)pyridin-4-yl)-1H-indole-3-carboxylic acid]",> 20 µM

# From patent US9056832B2, “Pyridine compounds and the users thereof” (Purdue Pharma L.P., priority 2010, dated 2015)
